Experimental data published in patent US20220273673A1, “BONE-BINDING COMPOUNDS” (BRIGHAM YOUNG UNIVERSITY, priority 2019, published 2022).

Columns and labels:
[1] = tested on: J774.2 monocyte macrophage lineage cells; experiment: In vitro protein prenylation assay (mevalonate pathway); format: cell-based; details: 25 μM or equimolar concentration; 24 hours
Experimental: The assay used was as described by Ali N et al., Small GTPases 6(4):202-11 (2015). Briefly, this involved incubation of cells with the compounds for 24 hours at increasing doses of drugs and then an in vitro prenylation assay being performed on protein extracts. Immunoblotting (western blotting) was carried out to identify an exemplar unprenylated protein, with a band indicating drug activity affecting the mevalonate pathway.

[2] = Hydroxyapatite (HA) binding assay, HPLC of supernatant; details: after 60 minutes of incubation with HA
Experimental: To analyze the reduction in peak height due to HA binding, 100 μL of supernatant was withdrawn at predetermined time points and analyzed by HPLC.

MC3T3-E1 cells = experiment: Alkaline phosphatase activity assay (p-nitrophenyl phosphate) in osteoblasts; format: cell-based; details: 5 μM; osteogenic media; without rhBMP-2
Experimental: A p-nitrophenyl phosphate assay was performed for alkaline phosphatase activity (Sigma-Aldrich) and normalized to day-3 cells grown in osteogenic media and α-MEM media. Assays were performed in triplicate with two independent repeats.

cultured cells = details: Schindeler et al. 2015; cited from earlier work

Compound | Effect on protein prenylation (unprenylated protein band, western blot) [1] | Reduction in peak height on HA incubation (in words) [2] | Alkaline phosphatase expression / osteogenic potential, compound alone (MC3T3-E1 cells) | Pro-osteogenic activity, potentiation of rhBMP-2 (cultured cells)
NCCCC(O)(P(=O)(O)O)P(=O)(O)O [alendronate] | potent effect on protein prenylation | – | – | –
CCCCCN(CCCCC)CCC[C@@H](C)[C@H]1CC[C@H]2[C@@H]3[C@H](OCCCN)C[C@@H]4C[C@H](OCCCN)CC[C@]4(C)[C@H]3CC(OCCCN)[C@]12C (some centres unmarked) [CSA-90] | did not induce a noticeable or comparable protein prenylation effect | no, or very low, reduction in peak height | increased alkaline phosphatase expression | pro-osteogenic activity
